Measurements as given in patent publication US20070059756A1, “Immunointeractive molecules and their uses in treating subjects suffering from Hev b 5 allergies” (priority 1999, published 2007).

What was measured:
Assay type in all cases: cell-based, human
[1] = tested on: latex specific T cell lines; experiment: Oligoclonal T cell proliferation assay (3H-thymidine incorporation); set-up: key to Proliferation inducing (+) or non-inducing (−) peptide: Proliferation inducing and non-inducing peptides are indicated by (+) and (−) respectively; Proliferation inducing and non-inducing peptides are indicated by (+) and (−) respectively; conditions: for Oligoclonal proliferative response: 4 day cultures
Protocol: Latex specific T cell lines were isolated using our well established methods for the generation of allergen specific oligoclonal T cell populations (O'Hehir et al., 1987). An initial primary culture was performed for each patient to determine the optimal concentration of LAL for stimulation. For this, peripheral blood mononuclear cells (PBMC) separated from heparinised venous blood by density centrifugation (2×10^5/well) were stimulated with LAL over a concentration range 0.03 to 100 μg/ml, with control cultures of PBMC alone or stimulated with tetanus toxoid. All cultures were maintained in complete medium (RPMI-1640, Gibco Life Technologies supplemented with 2 mmol/L L-glutamine, 100 IU/ml penicillin-streptomycin and 5% screened, heat inactivated human AB serum [Sigma]). […] Therefore, to generate T cell lines, PBMC (2.5×10^6/well) were stimulated for 1 week with LAL at a concentration of 20 μg/ml in 24-well tissue culture plates (Costar, USA). After 7 days, lymphoblasts (1×10^6/well) were restimulated for one week with LAL at a concentration of 20 μg/ml in the presence of an equal number of irradiated (3000 rad) autologous PBMC as antigen presenting cells (APC). On days 2 and 4, cultures were supplemented with Lymphocult-T (5% v/v; Biotest Folex, Germany) and fresh medium. At the end of the second week, lymphoblasts were restimulated for one week with rhev b 5/MBP at a concentration of 20 μg/ml as described above. Oligoclonal T cells were recovered, washed and tested in proliferation and cytokine assays (as described below) either fresh or after cryopreservation in liquid nitrogen. We have previously shown that CD4^+ T cells are preferentially expanded in these cultures.
Oligoclonal T cell blasts (5×10^4) were incubated in 96-well round bottom plates (Linbro, ICN Biomedicals, USA) in triplicate with equal numbers of irradiated APC in the presence of LAL at concentrations ranging from 0.03-100 μg/ml, rHev b 5/MBP (10 and 20 μg/ml), MBP (10 and 20 μg/ml), overlapping peptides of the Hev b 5 sequence (10 and 30 μg/ml), Lymphocult-T (10 IU/ml) or PHA (3 μg/ml). Cultures of T cells and APC in the absence of antigen, T cells alone and APC alone in the absence of antigen were included as controls. After 72 hours cultures were pulsed with 1 μCi of ^3H-thymidine (^3HTdR; Du Pont, NEN) and harvested 12-16 hours later. Proliferation as correlated with ^3HTdR incorporation was measured by liquid scintillation spectroscopy. Results are expressed as mean counts per minute (cpm) for triplicate cultures with standard deviation (SD; ±20% for all experiments).

IFNγ = IFNγ production by latex specific oligoclonal T cells (ELISA on culture supernatants); conditions: supernatant at 48 hours
Protocol: (§1) Representative stimulatory and non-stimulatory peptides were selected and T cells cultured in triplicate with these peptides. At 48 hours 50 μl of supernatant was harvested from the cultures and IL-5 and IFNγ were assayed by ELISA using paired cytokine antibodies (from Pharmingen Becton Dickinson, USA and Endogen, USA respectively). For this, opaque flat bottom ELISA plates (Nalgene, Nunc International) were coated with 30 μl capture antibody at 2 μg/ml in 0.1 M NaHCO3 pH 8.2 coating buffer overnight at 4° C. After washing three times with PBS/0.5% Tween the wells were blocked with 3% BSA/PBS at room temperature for 2 hours. The plates were washed and 30 μL pooled triplicate culture supernatants added in duplicate. […] Light emission was read immediately on a Lumicount microplate Glow Luminometer (Packard Instrument Company). A standard curve was run each time using known concentrations of standard cytokine samples and the concentrations of IL-S and IFNγ in the culture supernatants calculated accordingly. The lower limit of detection of the IL-5 assay was 20 pg/ml and the lower limit of detection of the IFN-γ assay was 2 pg/ml.

IL-5 = IL-5 production by latex specific oligoclonal T cells (ELISA on culture supernatants); conditions: for IL-5: supernatant at 48 hours; for secretion of IL-5 (in words): patient 4 T cell line
Protocol: as §1

[2] = P1 T cell line, antigen 10 μg/ml
[3] = P1 T cell line, antigen 30 μg/ml
[4] = P2 T cell line, antigen 10 μg/ml
[5] = P2 T cell line, antigen 30 μg/ml
[6] = P3 T cell line, antigen 10 μg/ml
[7] = P3 T cell line, antigen 30 μg/ml
[8] = P4 T cell line, antigen 10 μg/ml
[9] = P4 T cell line, antigen 30 μg/ml
[10] = P5 T cell line, antigen 10 μg/ml
[11] = P5 T cell line, antigen 30 μg/ml
[12] = P6 T cell line, antigen 10 μg/ml
[13] = P6 T cell line, antigen 30 μg/ml
[14] = P1 T cell line, peptide 10 μg/ml
[15] = P1 T cell line, peptide 30 μg/ml
[16] = P2 T cell line, peptide 10 μg/ml
[17] = P2 T cell line, peptide 30 μg/ml
[18] = P4 T cell line, peptide 10 μg/ml
[19] = P4 T cell line, peptide 30 μg/ml
[20] = P3 T cell line, peptide 10 μg/ml
[21] = P3 T cell line, peptide 30 μg/ml

Sequence | Oligoclonal proliferative response [1, 2] [counts per minute × 10^−3] | Oligoclonal proliferative response [1, 3] [counts per minute × 10^−3] | Oligoclonal proliferative response [1, 4] [counts per minute × 10^−3] | Oligoclonal proliferative response [1, 5] [counts per minute × 10^−3] | Oligoclonal proliferative response [1, 6] [counts per minute × 10^−3] | Oligoclonal proliferative response [1, 7] [counts per minute × 10^−3] | Oligoclonal proliferative response [1, 8] [counts per minute × 10^−3] | Oligoclonal proliferative response [1, 9] [counts per minute × 10^−3] | Oligoclonal proliferative response [1, 10] [counts per minute × 10^−3] | Oligoclonal proliferative response [1, 11] [counts per minute × 10^−3] | Oligoclonal proliferative response [1, 12] [counts per minute × 10^−3] | Oligoclonal proliferative response [1, 13] [counts per minute × 10^−3] | Proliferation inducing (+) or non-inducing (−) peptide ([1]; P1 T cell line) | Proliferation inducing (+) or non-inducing (−) peptide ([1]; P2 T cell line) | Proliferation inducing (+) or non-inducing (−) peptide ([1]; P4 T cell line) | IFNγ (IFNγ; [14]) [pg/mL] | IFNγ (IFNγ; [15]) [pg/mL] | IFNγ (IFNγ; [16]) [pg/mL] | IFNγ (IFNγ; [17]) [pg/mL] | IFNγ (IFNγ; [18]) [pg/mL] | also measured
AEEEKPITEAAETATTEVPV [Hev b 5 (127-146)] | 3.3 | 4.4 | 3.8 | 6.6 | 7.1 | 8.3 | 2.2 | 1.6 | 2.7 | 2.5 | 1.0 | 0.8 | – | – | – | – | – | – | – | – | –
APAEPEAPAPETEKAEEVEK [Hev b 5 (55-74)] | 5.0 | 7.7 | 2.8 | 5.6 | 9.1 | 8.2 | 2.0 | 2.8 | 1.1 | 0.7 | 0.7 | 0.9 | 55-74 (−) | 55-74 (−) | 55-74 (+) | 0 | 0 | 2 | 4 | 0 | IFNγ (IFNγ; [19]): 0 pg/mL; IL-5 (IL-5; [14]): 0 pg/mL; IL-5 (IL-5; [15]): 0 pg/mL; IL-5 (IL-5; [16]): 0 pg/mL; IL-5 (IL-5; [17]): 0 pg/mL; IL-5/IFNγ ratio (IL-5; [18]): 70; IL-5 (IL-5; [18]): 70 pg/mL; IL-5/IFNγ ratio (IL-5; [19]): 199; IL-5 (IL-5; [19]): 199 pg/mL; secretion of IL-5 (in words) (IL-5): secretion of IL-5
ASEQETADATPEKEEPTAAP [Hev b 5 (37-56)] | 7.1 | 8.5 | 18.3 | 38.8 | 8.8 | 2.7 | 3.0 | 3.2 | 1.4 | 1.1 | 1.4 | 0.9 | 37-56 (−) | 37-56 (+) | 37-56 (+) | 0 | 0 | 74 | 77 | 0 | IFNγ (IFNγ; [19]): 6 pg/mL; IL-5 (IL-5; [14]): 0 pg/mL; IL-5 (IL-5; [15]): 0 pg/mL; IL-5/IFNγ ratio (IL-5; [16]): 10.1; IL-5 (IL-5; [16]): 744 pg/mL; IL-5/IFNγ ratio (IL-5; [17]): 10; IL-5 (IL-5; [17]): 767 pg/mL; IL-5/IFNγ ratio (IL-5; [18]): 173; IL-5 (IL-5; [18]): 173 pg/mL; IL-5/IFNγ ratio (IL-5; [19]): 49.3; IL-5 (IL-5; [19]): 296 pg/mL; secretion of IL-5 (in words) (IL-5): secretion of IL-5
TKETETEAPAAPAEGEKPAE [Hev b 5 (109-128)] | 8.2 | 5.6 | 36.9 | 42.7 | 13.7 | 17.3 | 2.3 | 3.0 | 1.3 | 0.9 | 0.9 | 0.6 | 109-128 (−) | 109-128 (+) | 109-128 (+) | 0 | 0 | 73 | 97 | 0 | Proliferation inducing (+) or non-inducing (−) peptide ([1]; P3 T cell line): 109-128 (+); donors whose T cells proliferated in response to the peptide ([1]; five donors with IgE reactivity to rHev b 5/MBP): three of the five donors; IFNγ (IFNγ; [20]): 257 pg/mL; IFNγ (IFNγ; [21]): 292 pg/mL; IFNγ (IFNγ; [19]): 0 pg/mL; IL-5 (IL-5; [14]): 0 pg/mL; IL-5 (IL-5; [15]): 69 pg/mL; IL-5/IFNγ ratio (IL-5; [16]): 4; IL-5 (IL-5; [16]): 293 pg/mL; IL-5/IFNγ ratio (IL-5; [17]): 6.1; IL-5 (IL-5; [17]): 595 pg/mL; IL-5/IFNγ ratio (IL-5; [20]): 5.5; IL-5 (IL-5; [20]): 1403 pg/mL; IL-5/IFNγ ratio (IL-5; [21]): 5.3; IL-5 (IL-5; [21]): 1559 pg/mL; IL-5/IFNγ ratio (IL-5; [18]): 166; IL-5 (IL-5; [18]): 166 pg/mL; IL-5/IFNγ ratio (IL-5; [19]): 212; IL-5 (IL-5; [19]): 212 pg/mL; secretion of IL-5 (in words) (IL-5): secretion of IL-5
